Laboratory results taken from patent US9102656B2, “Use of rosuvastatin lactols as medicaments” (RedX Pharma Limited, priority 2009, dated 2015).
Where a name gives a salt, the structure may show the parent alone.

What was measured:
HMG-CoA reductase = HMG-CoA reductase (Homo sapiens (Human), UniProt P04035); experiment: HMG-CoA Reductase assay kit (spectrophotometric NADPH absorbance at 340 nm); type: biochemical; settings: inhibitor concentrations varied from 0 nM to 50 nM; 37° C.
Description: All assays were carried out in a reaction buffer containing […] KxPO4 at pH 7.2, 1 mM EDTA, 500 mM KCl and 1 mg/ml BSA. The concentrations of NADPH and HMG-CoA were both 200 μM. […] Absorbance readings were then taken every 20 seconds for 600 seconds. […] After these were identified, assays were carried out varying their concentrations from 0 nM to 50 nM allowing IC50 values to be calculated.
Add a buffer to all samples. • b. […] Add the reconstituted NADPH to all samples. • d. Add Substrate Solution (HMG-CoA) to all samples. • e. […] Mix the samples thoroughly. 3. The kinetics programme was started immediately.

plasma triglycerides = experiment: Rat plasma triglyceride levels after 3 or 5 days BID oral treatment; type: in vivo; settings: male SD rats, 25 mg/kg po BID for 3 or 5 days, plasma 16 hours after last dose
Description: The measurement of the change in rat plasma triglyceride levels is considered to be a fair test for determining HMG CoA reductase activity.
112 male SD rats (Harlan) were housed in groups of 6 under a 12 h light dark cycle (lights on 07.00 h) with free access to food (normal laboratory chow) and water. Animals between 148-183 g were allocated to treatment groups of 8 balanced by body weight and treatments were balanced across cages.
Four rosuvastatin analogues were made up in 10% PEG300/10% cremophor/80% methyl cellulose (0.5%) (vehicle 1) to make a 5 mg/mL solution. The rosuvastatin compounds used were:
Rosuvastatin Lactol n-propyl acetal (diastereomeric ratio 2/1) (BPL001); Rosuvastatin lactol n-propyl acetal nicotinoyl ester (diastereomeric ratio 2/1) (BPL002); Rosuvastatin lactol iso-propyl acetal benzyl ether (BPL003); and Rosuvastatin lactol methyl acetal nicotinoyl ester (diastereomeric ratio 2/1) (BPL004).
Rosuvastatin was formulated in 0.5% Tween in 0.5% methyl cellulose (vehicle 2) at 5 mg/kg as a suspension.
Rats were orally dosed with vehicle 1, one of the four rosuvastatin analogues in vehicle 1 (25 mg/kg), vehicle 2 or rosuvastatin in vehicle 2 (25 mg/kg po), BID for 3 or 5 days. […]
Data for each time-point were analysed by 1-way ANOVA and post-hoc Dunnett's test.

Sequence of HMG-CoA reductase (P04035 340-888): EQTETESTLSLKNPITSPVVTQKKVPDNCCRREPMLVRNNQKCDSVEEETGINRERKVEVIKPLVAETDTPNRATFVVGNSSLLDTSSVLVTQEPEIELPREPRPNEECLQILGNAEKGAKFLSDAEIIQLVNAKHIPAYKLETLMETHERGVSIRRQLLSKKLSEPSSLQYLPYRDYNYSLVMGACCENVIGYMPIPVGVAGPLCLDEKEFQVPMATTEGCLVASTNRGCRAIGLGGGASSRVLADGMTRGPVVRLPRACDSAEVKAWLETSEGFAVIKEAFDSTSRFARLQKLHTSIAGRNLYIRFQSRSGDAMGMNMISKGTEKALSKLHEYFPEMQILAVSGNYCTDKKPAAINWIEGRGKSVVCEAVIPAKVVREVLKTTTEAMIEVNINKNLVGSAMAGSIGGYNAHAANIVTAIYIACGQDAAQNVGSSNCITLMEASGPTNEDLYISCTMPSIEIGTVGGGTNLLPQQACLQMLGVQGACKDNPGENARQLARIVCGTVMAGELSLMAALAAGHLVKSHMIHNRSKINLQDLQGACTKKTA

IC50 (HMG-CoA reductase) [nM]	Compound	effect on plasma triglycerides (plasma triglycerides)
< 1	COC1C[C@H](OC(=O)c2cccnc2)C[C@@H](/C=C/c2c(-c3ccc(F)cc3)nc(N(C)S(C)(=O)=O)nc2C(C)C)O1 (stereo partly drawn)	
4	CC(C)c1nc(N(C)S(C)(=O)=O)nc(-c2ccc(F)cc2)c1/C=C/[C@@H](O)C[C@@H](O)CC(=O)O [Rosuvastatin calcium salt]	
	CC(C)c1nc(N(C)S(C)(=O)=O)nc(-c2ccc(F)cc2)c1C=CC(O)CC(O)CC(=O)O (stereo not drawn) [rosuvastatin, 7-[4-(4-fluorophenyl)-6-(1-methylethyl)-2-(methyl-methylsulfonyl-amino)-pyrimidin-5-yl]-3,5-dihydroxy-hept-6-enoic acid]	marked reduction in plasma triglycerides
